Laboratory results from the supplement of paper PMC10307832.

compound: Cn1cnc2c(F)c(Nc3ccc(Br)cc3Cl)c(C(=O)NOCCO)cc21 [Selumetinib] + Cc1nc(Nc2ncc(C(=O)Nc3c(C)cccc3Cl)s2)cc(N2CCN(CCO)CC2)n1 [Dasatinib] (partner 0.075 µM); test: relative viability (nuclei count vs DMSO), 5 days (fraction); higher = more cells survive; conditions: first compound 0.6325 µM
Procedure, shortened: (§1)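 Lung cancer cell lines were seeded in 1536-well plates and dosed by pin tool the next day, with either a single drug or a fixed anchor-drug dose combined with five library-drug doses (not always all listed) spaced in √10 steps. Five days later, one step fixed the cells and stained their nuclei (final 0.05% Triton X-100, 1% formaldehyde, 1 ug/ml Hoechst), and nuclei were counted on 4× images. Relative viability is the nuclei count in treated wells divided by the count in vehicle wells, and each value is the median of duplicate plates.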

Compared with NCI-H1793, NCI-H1944 is lower in relative viability: 0.294 for the first, 0.167 for the second.

First: ABC-1
Second: NCI-H358
The relative viability of the first is higher: 0.566 for the first, 0.129 for the second.

For NCI-H727, the relative viability was 0.279.

compound: Cn1cnc2c(F)c(Nc3ccc(Br)cc3Cl)c(C(=O)NOCCO)cc21 [Selumetinib] + O=C(CCCCCCC(=O)Nc1ccccc1)NO [Vorinostat] (partner 1 µM); test: as above; conditions: first compound 0.02 µM
Procedure, shortened: as §1

Going from NCI-H522 to PC-14, the relative viability falls from 0.855 to 0.835.

First: NCI-H1666
Second: NCI-H1755
The relative viability of the first is higher: 1.02 for the first, 0.821 for the second.

Going from NCI-H2023 to EPLC-272H, the relative viability falls from 0.617 to 0.312.

First: LCLC-97TM1
Second: PC-3 [JPC-3]
The relative viability of the first is lower: 0.925 for the first, 1.02 for the second.

Going from LOU-NH91 to NCI-H647, the relative viability falls from 0.889 to 0.697.

Compared with NCI-H23, EMC-BAC-2 is higher in relative viability: 0.649 for the first, 0.928 for the second.

Compared with NCI-H2126, HCC-44 is higher in relative viability: 0.727 for the first, 1.1 for the second.

First: NCI-H1734
Second: NCI-H650
The relative viability of the first is higher: 0.787 for the first, 0.552 for the second.

First: LK-2
Second: NCI-H2228
The relative viability of the first is lower: 0.296 for the first, 0.744 for the second.

Going from NCI-H2342 to SK-MES-1, the relative viability rises from 0.784 to 0.938.

First: HARA
Second: COR-L23
The relative viability of the first is lower: 0.428 for the first, 0.554 for the second.

Going from COR-L 105 to LC-2-ad, the relative viability falls from 0.779 to 0.653.

First: LXF-289
Second: ChaGo-K-1
The relative viability of the first is lower: 0.734 for the first, 0.762 for the second.

First: NCI-H2170
Second: NCI-H322M
The relative viability of the first is lower: 0.905 for the first, 0.946 for the second.

Compared with IA-LM, HCC-78 is lower in relative viability: 0.728 for the first, 0.433 for the second.

Compared with SW 900, NCI-H1395 is higher in relative viability: 0.423 for the first, 0.761 for the second.

Going from NCI-H1793 to NCI-H1944, the relative viability rises from 0.512 to 0.562.

Going from ABC-1 to NCI-H358, the relative viability falls from 1.29 to 0.422.

NCI-H727 gave a relative viability of 1.01.

same assay, conditions: first compound 0.06325 µM

Compared with NCI-H522, PC-14 is lower in relative viability: 0.846 for the first, 0.667 for the second.

First: NCI-H1666
Second: NCI-H1755
The relative viability of the first is higher: 0.902 for the first, 0.68 for the second.

Compared with NCI-H2023, EPLC-272H is lower in relative viability: 0.554 for the first, 0.343 for the second.

First: LCLC-97TM1
Second: PC-3 [JPC-3]
The relative viability of the first is higher: 0.714 for the first, 0.663 for the second.

Going from LOU-NH91 to NCI-H647, the relative viability falls from 0.88 to 0.38.

First: NCI-H23
Second: EMC-BAC-2
The relative viability of the first is lower: 0.561 for the first, 0.682 for the second.

Going from NCI-H2126 to HCC-44, the relative viability rises from 0.664 to 1.05.

First: NCI-H1734
Second: NCI-H650
The relative viability of the first is higher: 0.814 for the first, 0.778 for the second.

Compared with LK-2, NCI-H2228 is higher in relative viability: 0.288 for the first, 0.627 for the second.

Compared with NCI-H2342, SK-MES-1 is higher in relative viability: 0.746 for the first, 0.85 for the second.

Compared with COR-L23, COR-L 105 is higher in relative viability: 0.537 for the first, 0.829 for the second.

Going from LC-2-ad to LXF-289, the relative viability falls from 0.723 to 0.668.

Going from ChaGo-K-1 to NCI-H2170, the relative viability rises from 0.684 to 0.74.

Compared with NCI-H322M, IA-LM is higher in relative viability: 0.638 for the first, 0.648 for the second.

First: HCC-78
Second: SW 900
The relative viability of the first is lower: 0.358 for the first, 0.399 for the second.

Going from NCI-H1648 to NCI-H1395, the relative viability rises from 0.596 to 0.613.

Compared with NCI-H1793, NCI-H1944 is higher in relative viability: 0.422 for the first, 0.448 for the second.

Going from ABC-1 to NCI-H358, the relative viability falls from 0.922 to 0.335.

NCI-H727 gave a relative viability of 0.741.

same assay, conditions: first compound 0.2 µM

Compared with NCI-H522, PC-14 is lower in relative viability: 0.851 for the first, 0.688 for the second.

Going from NCI-H1666 to NCI-H1755, the relative viability falls from 1.06 to 0.726.

First: NCI-H2023
Second: EPLC-272H
The relative viability of the first is higher: 0.524 for the first, 0.3 for the second.

Compared with LCLC-97TM1, PC-3 [JPC-3] is higher in relative viability: 0.661 for the first, 0.748 for the second.

Going from LOU-NH91 to NCI-H647, the relative viability falls from 0.843 to 0.727.

Going from NCI-H23 to EMC-BAC-2, the relative viability rises from 0.557 to 0.607.

First: NCI-H2126
Second: HCC-44
The relative viability of the first is lower: 0.595 for the first, 1.06 for the second.

Going from NCI-H1734 to NCI-H650, the relative viability rises from 0.694 to 0.72.

Compared with LK-2, NCI-H2228 is higher in relative viability: 0.296 for the first, 0.63 for the second.

Compared with NCI-H2342, SK-MES-1 is higher in relative viability: 0.737 for the first, 0.853 for the second.

First: HARA
Second: COR-L23
The relative viability of the first is lower: 0.365 for the first, 0.485 for the second.

Compared with COR-L 105, LC-2-ad is higher in relative viability: 0.598 for the first, 0.665 for the second.

Going from LXF-289 to ChaGo-K-1, the relative viability rises from 0.595 to 0.708.

First: NCI-H2170
Second: NCI-H322M
The relative viability of the first is higher: 0.705 for the first, 0.653 for the second.

Going from IA-LM to HCC-78, the relative viability rises from 0.366 to 0.413.

Going from SW 900 to NCI-H1648, the relative viability rises from 0.409 to 0.423.

Going from NCI-H1395 to NCI-H1793, the relative viability falls from 0.653 to 0.445.

First: NCI-H1944
Second: ABC-1
The relative viability of the first is lower: 0.441 for the first, 0.982 for the second.

Compared with NCI-H358, NCI-H727 is higher in relative viability: 0.265 for the first, 0.709 for the second.

same assay, conditions: first compound 0.6325 µM

First: NCI-H522
Second: PC-14
The relative viability of the first is higher: 0.921 for the first, 0.504 for the second.

Compared with NCI-H1666, NCI-H1755 is lower in relative viability: 0.86 for the first, 0.852 for the second.

First: NCI-H2023
Second: EPLC-272H
The relative viability of the first is higher: 0.559 for the first, 0.256 for the second.

Going from LCLC-97TM1 to PC-3 [JPC-3], the relative viability rises from 0.437 to 0.734.

First: LOU-NH91
Second: NCI-H647
The relative viability of the first is higher: 0.874 for the first, 0.712 for the second.

First: NCI-H23
Second: EMC-BAC-2
The relative viability of the first is lower: 0.668 for the first, 0.865 for the second.

Going from NCI-H2126 to HCC-44, the relative viability rises from 0.583 to 1.07.

Compared with NCI-H1734, NCI-H650 is lower in relative viability: 0.85 for the first, 0.805 for the second.

Going from LK-2 to NCI-H2228, the relative viability falls from 0.711 to 0.619.

First: NCI-H2342
Second: SK-MES-1
The relative viability of the first is higher: 0.812 for the first, 0.65 for the second.

Compared with HARA, COR-L23 is higher in relative viability: 0.249 for the first, 0.456 for the second.

First: COR-L 105
Second: LC-2-ad
The relative viability of the first is lower: 0.47 for the first, 0.67 for the second.

Going from LXF-289 to ChaGo-K-1, the relative viability rises from 0.661 to 0.674.

Compared with NCI-H2170, NCI-H322M is lower in relative viability: 0.786 for the first, 0.758 for the second.

Going from IA-LM to HCC-78, the relative viability rises from 0.198 to 0.482.

Going from SW 900 to NCI-H1648, the relative viability falls from 0.588 to 0.367.

Going from NCI-H1395 to NCI-H1793, the relative viability falls from 0.775 to 0.365.

Going from NCI-H1944 to ABC-1, the relative viability rises from 0.491 to 1.04.

Going from NCI-H358 to NCI-H727, the relative viability rises from 0.248 to 0.553.
